In patent publication US20250066349A1 (Prothena Biosciences Limited, priority 2021, published 2025) one finds IC50 data, which are given here for 36 compounds.

Like-named read-outs stand apart in the source and are kept apart here. Some results are limits rather than exact numbers.

The assay addresses DYRK1A (Homo sapiens (Human), UniProt Q13627). In words: DYRK1A Inhibition Assay. Type of assay: biochemical. As to conditions: DYRK1A 1 nM, ATP 20 μM, Ser/Thr 18 peptide 2 μM, 90 minutes, read-out: DYRK1 IC50. The procedure: DYRK1A—Invitrogen #PV4105
• Ser/Thr 18 peptide—Invitrogen #PR8227U • Phos-Ser/Thr 18 peptide—Invitrogen #PR8229U • Assay plate—PerkinElmer #6007279 • ATP—Sigma #A7699-5G • Development reagent A—Invitrogen #PR5194B • Development buffer—Invitrogen #PR4876B Compound preparation • 1. Test compounds were diluted to 1 mM in DMSO • 2. Stock was further diluted 3-fold using Echo platform • 3. 100 nL of DMSO into Columns 1 and 24 and 100 nL of compounds dilutions to Columns 2-23 in a plate.
• 1. Add 5 μL enzyme & substrate mixture to each well in Column 2-23 and A24-H24 wells of the 384-well assay plate; • 2. Add 5 μL 0% Phosphorylation control to A1-H1 and I24-P24 wells of the assay plate; • 3. Add 5 μL 100% Phosphorylation control to I1-P1 wells of the assay plate; • 4. Spin the assay plate (1000 rpm, 1 minute @23° C.); • 5. Incubate enzyme with compounds for 15 minutes at 23° C.; • 6. Add 5 μL ATP solution to each well of the assay plate; • 7. Spin the plate (1000 rpm, 1 minute @23° C.); • 8. Incubate the assay plate for 90 minutes at 23° C.; • 9. Add 10 μL Development reagent A to each well of the assay plate; • 10. Centrifuge the plate at 1000 rpm about 15 seconds and seal a film over assay plate. Incubate the assay plate for 30 minutes at 23° C. • 11. Read assay plates on Envision (see Tables A-D).
Final Compound Concentrations
• Assay buffer: 50 mM Hepes pH7.5, 10 mM MgCl2, 1 mM EDTA, 0.01% Brij-35 • DYRK1A: 1 nM • ATP: 20 μM • Ser/Thr 18 peptide: 2 μM • Reaction time: 90 minutes

What is called IC50 is the concentration needed to halve the response being measured. On to `Cc1c(C2CCN(CC(F)F)CC2)[nH]c2ncc3ccc(-c4cnn(C)c4)cc3c12` [Compound 55, 2-(1-(2,2-difluoroethyl)piperidin-4-yl)-1-methyl-8-(1-methyl-1H-pyrazol-4-yl)-3H-pyrrolo[2,3-c]isoquinoline], for which the IC50 (Compounds of Formula (I)) was at most 10 nM.

With `c1ncc(-c2ccc3cnc4cc(C5CCOCC5)sc4c3c2)s1` [Compound 78, 2-(tetrahydro-2H-pyran-4-yl)-8-(thiazol-5-yl)thieno[3,2-c]isoquinoline], for the setting “Compounds of Formula (I)”, the IC50 was at most 10 nM.

Turning to `Cn1ncc2cc3[nH]c(=O)n(-c4cccc(O)c4)c3cc21` [Compound 5], where the note is “Compounds of Formula (IV)”, the IC50 was 500 to 1000 nM.

For the compound `CC(C)CN1CCC(c2cc3c(ncc4ccc(-c5cncs5)cc43)[nH]2)CC1` [Compound 88, 5-(2-(1-isobutylpiperidin-4-yl)-3H-pyrrolo[2,3-c]isoquinolin-8-yl)thiazole], where the note is “Compounds of Formula (I)”, the IC50 was at most 10 nM.

As for `Cn1cc(-c2ccc3cnc4c(c3c2)c([C@H]2CC[C@H](C(=O)O)CC2)cn4C)cn1` [Compound 47, 4-(3-methyl-8-(1-methyl-1H-pyrazol-4-yl)-3H-pyrrolo[2,3-c]isoquinolin-1-yl)cyclohexane-1-carboxylic acid], the IC50 (Compounds of Formula (I)) is at most 10 nM.

Regarding `CC(=O)N1CCc2c(cnc3[nH]cc(-c4ccncc4)c23)C1` [Compound 7], the IC50 (Compounds of Formula (IV)) lay in the range of 500 to 1000 nM.

Consider `Cc1c[nH]c2ncc3ccc(-c4cnc(C#CC5CCOCC5)s4)cc3c12` [Compound 63], for which the IC50 (Compounds of Formula (I)) was at most 10 nM.

Take `O=C1Cc2c(ncc3cc(-c4cnco4)ccc23)N1` [Compound 83]: the IC50 (Compounds of Formula (I)) fell in the range of 100 to 1000 nM.

For the compound `Fc1ccc(-c2c[nH]c3ncc4ccc(-c5cn[nH]c5)cc4c23)cc1` [Compound 3, 1-(4-fluorophenyl)-8-(1H-pyrazol-4-yl)-3H-pyrrolo[2,3-c]isoquinoline], the concentration for half-maximal inhibition (IC50) (Compounds of Formula (I)) was 10 to 100 nM.

On to `CN1CCC(c2c(C(F)(F)F)[nH]c3ncc4cc(-c5cnco5)ccc4c23)CC1` [Compound 57, 5-(1-(1-methylpiperidin-4-yl)-2-(trifluoromethyl)-3H-pyrrolo[2,3-c]isoquinolin-7-yl)oxazole], for which, where the note is “Compounds of Formula (I)”, the half-maximal inhibitory concentration (IC50) was above 1000 nM.

For the compound `Cn1cc(-c2ccc3cnc4c(c3c2)CCO4)cn1` [Compound 74, 8-(1-methyl-1H-pyrazol-4-yl)-1,2-dihydrofuro[2,3-c]isoquinoline], the half-maximal inhibitory concentration (IC50) (Compounds of Formula (I)) was in the range of 10 to 100 nM.

`Cn1c(=O)[nH]c2ncc(-c3ccc4cnsc4c3)cc21` [Compound 30, 6-(benzo[d]isothiazol-6-yl)-1-methyl-1,3-dihydro-2H-imidazo[4,5-b]pyridin-2-one]: where the note is “Compounds of Formula (I)”, the half-maximal inhibitory concentration (IC50) lay in the range of 100 to 1000 nM.

For the compound `CN1CCC(c2nc3c(-c4cn(C)c5cnccc45)ccnc3[nH]2)CC1` [Compound 5], for the setting “Compounds of Formula (II)”, the IC50 was 10 to 100 nM.

`O[C@H]1CCN(c2cncc(-c3ccc4cnc5[nH]cc(C6CCC6)c5c4c3)c2)C1` [Compound 66, (S)-1-(5-(1-cyclobutyl-3H-pyrrolo[2,3-c]isoquinolin-8-yl)pyridin-3-yl)pyrrolidin-3-ol]: where the note is “Compounds of Formula (I)”, the IC50 is at most 10 nM.

With `CN1CCC(C#Cc2ncc(-c3ccc4cnn(C)c4c3)s2)CC1` [Compound 8], under “Compounds of Formula (III)”, the IC50 was in the range of 50 to 200 nM.

As to `Cn1ccc2c3cc(-c4cnc(C#CC5CCOCC5)s4)ccc3cnc21` [Compound 60], for the setting “Compounds of Formula (I)”, the IC50 is 10 to 100 nM.

As for `Cn1cc(-c2ccc3cnc4[nH]cc(-c5ccc(F)cc5)c4c3c2)cn1` [Compound 2, 1-(4-fluorophenyl)-8-(1-methyl-1H-pyrazol-4-yl)-3H-pyrrolo[2,3-c]isoquinoline], the IC50 (Compounds of Formula (I)) was 10 to 100 nM.

On to `CN1CCC(C#Cc2ncc(-c3ccc4cnc5c(ccn5C)c4c3)s2)CC1` [Compound 62, 5-(3-methyl-3H-pyrrolo[2,3-c]isoquinolin-8-yl)-2-((1-methylpiperidin-4-yl)ethynyl)thiazole], for which the IC50 (Compounds of Formula (I)) was in the range of 10 to 100 nM.

Regarding `Cc1c(C2CCNCC2)[nH]c2ncc3ccc(-c4cnn(C)c4)cc3c12` [Compound 41, 1-methyl-8-(1-methyl-1H-pyrazol-4-yl)-2-(piperidin-4-yl)-3H-pyrrolo[2,3-c]isoquinoline], the 50% inhibitory concentration (IC50) (Compounds of Formula (I)) was at most 10 nM.

Regarding `c1ncc(-c2ccc3cnc4sc(C5CCN(CC6CC6)CC5)nc4c3c2)s1` [Compound 86, 2-(1-(cyclopropylmethyl)piperidin-4-yl)-8-(thiazol-5-yl)thiazolo[5,4-c]isoquinoline], the IC50 (Compounds of Formula (I)) was 10 to 100 nM.

In the case of `Cn1cc(-c2ccc3cnc4[nH]cc(C5CCC(C(=O)N6CCNCC6)CC5)c4c3c2)cn1` (stereo not drawn) [Compound 28, (4-(8-(1-methyl-1H-pyrazol-4-yl)-3H-pyrrolo[2,3-c]isoquinolin-1-yl)cyclohexyl)(piperazin-1-yl)methanone], the half-inhibitory concentration (IC50) (Compounds of Formula (I)) is at most 10 nM.

As for `O[C@@H]1CCN(c2cncc(-c3ccc4cnc5[nH]c(C6CCC6)cc5c4c3)c2)C1` [Compound 70], the IC50 (Compounds of Formula (I)) was 10 to 100 nM.

For the compound `Cn1cc(-c2ccc3cnc4cc(C5CCOCC5)sc4c3c2)cn1` [Compound 72], under “Compounds of Formula (I)”, the concentration for half-maximal inhibition (IC50) is at most 10 nM.

In the case of `CN1CCC(C#Cc2ncc(-c3ccc4cnc5[nH]ccc5c4c3)s2)CC1` [Compound 61, 2-((1-methylpiperidin-4-yl)ethynyl)-5-(3H-pyrrolo[2,3-c]isoquinolin-8-yl)thiazole], the 50% inhibitory concentration (IC50) (Compounds of Formula (I)) is at most 10 nM.

Take `CN1CCN(c2nccc3c2cnc2[nH]cc(-c4ccncc4)c23)CC1` [Compound 43, 6-(4-methylpiperazin-1-yl)-1-(pyridin-4-yl)-3H-pyrrolo[2,3-c][2, 7]naphthyridine]: the IC50 (Compounds of Formula (I)) is 10 to 100 nM.

Take `CNC(=O)C1CCC(c2c[nH]c3ncc4ccc(-c5cnn(C)c5)cc4c23)CC1` (stereo not drawn) [Compound 27]: the IC50 (Compounds of Formula (I)) is at most 10 nM.

Regarding `O=C(O)C1CC(c2c[nH]c3ncc4ncccc4c23)C1` (stereo not drawn) [Compound 34, 3-(3H-pyrrolo[3,2-f][1,7]naphthyridin-1-yl)cyclobutane-1-carboxylic acid], the half-inhibitory concentration (IC50) (Compounds of Formula (I)) lay in the range of 100 to 1000 nM.

For `Cc1nc2ncc3ccc(-c4cnn(C)c4)cc3c2s1` [Compound 80], the IC50 (Compounds of Formula (I)) was 100 to 1000 nM.

Regarding `Cn1cc(-c2ccc3c4c(ncc3c2)NC(=O)C4)cn1` [Compound 84, 7-(1-methyl-1H-pyrazol-4-yl)-1,3-dihydro-2H-pyrrolo[2,3-c]isoquinolin-2-one], the 50% inhibitory concentration (IC50) (Compounds of Formula (I)) is above 1000 nM.

Consider `O=C(O)c1ccc2c(cnc3c2cnn3CC2CCOCC2)c1` [Compound 71], for which the half-inhibitory concentration (IC50) (Compounds of Formula (I)) lay in the range of 100 to 1000 nM.

In the case of `Cn1cc(-c2ccc3cnc4[nH]cc(C(=O)N5CCNCC5)c4c3c2)cn1` [Compound 12, (8-(1-methyl-1H-pyrazol-4-yl)-3H-pyrrolo[2,3-c]isoquinolin-1-yl)(piperazin-1-yl)methanone], where the note is “Compounds of Formula (I)”, the half-inhibitory concentration (IC50) is 10 to 100 nM.

In the case of `Cc1c(C2CCN(C)CC2)[nH]c2ncc3ccc(-c4cnn(C)c4)cc3c12` [Compound 42, 1-methyl-8-(1-methyl-1H-pyrazol-4-yl)-2-(1-methylpiperidin-4-yl)-3H-pyrrolo[2,3-c]isoquinoline], the 50% inhibitory concentration (IC50) (Compounds of Formula (I)) was at most 10 nM.

`OCc1ccc2c(cnc3[nH]cc(-c4ccc(F)cc4)c32)c1` [Compound 5]: where the note is “Compounds of Formula (I)”, the IC50 lay in the range of 10 to 100 nM.

With `CC(=O)N1CCc2c(cnc3[nH]cc(-c4cccc(Cl)c4)c23)C1` [Compound 10], the IC50 (Compounds of Formula (IV)) was in the range of 1000 to 5000 nM.

In the case of `Cn1cc(-c2ccc3cnc4[nH]c(C5CCNCC5)cc4c3c2)cn1` [Compound 39, 8-(1-methyl-1H-pyrazol-4-yl)-2-(piperidin-4-yl)-3H-pyrrolo[2,3-c]isoquinoline], the IC50 (Compounds of Formula (I)) is at most 10 nM.

Regarding `CC(C)CN1CCC(c2cc3c(ncc4ccc(-c5cn[nH]c5)cc43)[nH]2)CC1` [Compound 89, 2-(1-isobutylpiperidin-4-yl)-8-(1H-pyrazol-4-yl)-3H-pyrrolo[2,3-c]isoquinoline], the IC50 (Compounds of Formula (I)) was in the range of 10 to 100 nM.
